Each structure is given as a SMILES string. Several values for one entry are separate records, joined by “and”; a condition that tells them apart may be missing. Identical values can stand only once.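 In this assay, cells in 96-well plates receive the compound at five concentrations for 48 hours. Endpoints are linearly interpolated between the surrounding concentrations. GI50 = concentration required for 50% inhibition of growth. TGI: concentration producing complete growth inhibition.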

The assay deals with MDA-MB-468 breast. Put plainly: inhibition of tumour cell growth, NCI panel, 48 h.

Turning to `O=C(NOCC1CC1)c1ccc(F)c(F)c1Nc1ccc(I)cc1Cl`, the GI50 is 2670 nM and the TGI was 8210 nM.
For `O=C(Nc1ccc(Cl)cc1)c1cc2ccccc2cc1O`, in that order: 1610 nM and 7030 nM.
On to `C=C1C(=O)O[C@H]2[C@H]1CC/C(Cn1cc(-c3ccccc3)nn1)=C\CC[C@@]1(C)O[C@@H]21`, for which the GI50 was 953 nM and the TGI was determined as 1970 nM.
On the same counts, the results for `S=C(N/N=C/c1ccccn1)Nc1ccccn1` are 1280 nM and 5760 nM.
On the same counts, the results for `S=C(Nc1ccc(Cl)cc1)Nc1ccc(Cl)cc1` (tested in a mixture with another compound) are 1700 nM and 5110 nM.
On the same counts, the results for `C[C@]12CC[C@@H]3c4ccc(O)cc4CC[C@H]3[C@@H]1CC[C@@H]2NS(=O)(=O)Cc1ccc(Cl)cc1` are 3630 nM and 16700 nM.
Turning to `C#C[C@]1(O)CC[C@H]2[C@@H]3CC=C4c5sc(Nc6cc(Cl)ccc6OC)nc5CC[C@]4(C)[C@H]3CC[C@@]21C`, the GI50 was 1690 nM and the TGI came out at 4650 nM.
Regarding `O=C(NC(=S)Nc1ccc(Cl)cc1)c1ccccc1`, the GI50 was 2560 nM and the TGI is more than 85300 nM.
On the same counts, the results for `COc1ccc(-c2nc(-c3cn(C)c4ncccc34)cs2)cc1` are 3830 nM and more than 100000 nM.
On the same counts, the results for `O=C1CCC2(C=C(Br)C(=O)C(Br)=C2)O1` are 1640 nM and 4290 nM.
On the same counts, the results for `COc1ccc(-c2nc(-c3ccccc3)c(-c3ccccc3)n2C2CC2)cc1OC1CCCC1` are 66800 nM and more than 165000 nM.
Turning to `CN(C)Cc1ccc(C(=O)Nc2ccc3ncnc(Nc4ccc(Oc5cccc(F)c5)c(Cl)c4)c3c2)cc1`, the GI50 is 1290 nM and the TGI was 2790 nM.
For `COC(=O)/C(=C\c1c(C)[nH]c2ccccc12)S(=O)(=O)c1ccccc1`, in that order: 6250 nM and more than 100000 nM.
On the same counts, the results for `N=C(N)CCCCCCCCC(=N)N` are 10100 nM and more than 100000 nM.
For `CC1(C)N=C(N)N=C(N)N1c1cc(Cl)ccc1Cl`, in that order: 28600 nM and more than 100000 nM.
Take `Cc1ccc2c(=O)c3cccc(CC(=O)O)c3oc2c1C`: the GI50 was more than 100000 nM and the TGI was more than 100000 nM.
With `CCC1=Cc2c(OC)cccc2OC12C=Cc1c(OC)cccc1O2` (stereo unspecified), the GI50 was 951 nM and the TGI was more than 100000 nM.
Take `O=C1C=Cc2ccccc2/C1=C/c1[nH]c(=O)[nH]c1O`: the GI50 is 2660 nM and the TGI stood at 7630 nM.
For `Cc1[nH]c(/C=C2\C(=O)Nc3ccc(F)cc32)c(C)c1C(=O)NC[C@H](O)CN1CCOCC1`, in that order: more than 10000 nM and more than 10000 nM.
Regarding `COc1ccc(-c2cn[nH]c2-c2cc(OC)c(OC)c(OC)c2)cc1N`, the GI50 was < 10 nM and 31.4 nM; the TGI was more than 100000 nM.
Regarding `Nc1nc(-c2cccc([N+](=O)[O-])c2)c(N=Nc2ccc(Br)cc2)s1`, the GI50 was 11100 nM and the TGI is 34200 nM.
For `O=C(Nc1cccc(-c2nc(-c3ccc(NC(=O)c4cccs4)cc3Cl)no2)c1)Nc1ccc(NC(=O)C2CC2)c(C(F)(F)F)c1`, in that order: 181 nM and 394 nM.
For `Cc1cc2c(F)c(Oc3ncnn4cc(OC[C@@H](C)OC(=O)[C@H](C)N)c(C)c34)ccc2[nH]1`, the GI50 is 9230 nM and the TGI stood at 21800 nM.
For `Cc1nc2cccc(NCc3ccc(C(=O)NO)cc3)c2c(=O)n1-c1ccccc1`, in that order: 1480 nM and 3100 nM.
On the same counts, the results for `Cc1ccc2c(N)c(C(=O)N[C@H]3CCc4cc(N5CC6CCC(C5)N6)ccc4C3)sc2n1` are 579 nM and 2070 nM.
For `CC(NNC(=S)N1CCCCCC1)c1ccc2ccccc2n1` (stereo unspecified), in that order: 603 nM and 28100 nM.
For the compound `O=C(Nc1ncc(Cc2ccccc2Cl)s1)c1ccc2c(c1)OCCO2`, the GI50 is 462 nM and the TGI is more than 30600 nM.
For the compound `COc1ccc(/C=C\c2cc(OC)c(OC)c(OC)c2)cc1OCC(=O)Nc1nc2ccc(C(F)(F)F)cc2s1`, the GI50 is 2160 nM and the TGI was 6250 nM.
In the case of `COc1cc(/C=C/C(=O)c2ccc(Cl)cc2)ccc1OS(=O)(=O)c1ccc(C)cc1`, the GI50 was 8430 nM and the TGI was 32100 nM.
For `CNC(=O)c1cccc(-c2ccc3c(N4CCOC[C@@H]4C)nc(N4CCOC[C@@H]4C)nc3n2)c1`, the GI50 was 43.6 nM and 116 nM and 68.1 nM; the TGI was 473 nM and 558 nM and 499 nM.
`CCN(CC)CCCCCCCNc1c2ccc(Cl)cc2nc2ccc(OC)cc12`: the GI50 is 1340 nM and the TGI came out at 2860 nM.
On the same counts, the results for `CCOC(=O)Oc1c(OC)cc(C(=O)O[C@@H]2C[C@@H]3CN4CCc5c([nH]c6cc(OC)ccc56)[C@H]4C[C@@H]3[C@H](C(=O)OC)[C@H]2OC)cc1OC` are 8130 nM and 23300 nM.
For `O=C(Oc1ccc(CCl)cc1)c1ccccc1`, in that order: 142 nM and 325 nM.

Source of the values: PubChem BioAssay (NCI).
